Experimental data published in paper PMC5773535, “Plasmodium dihydrofolate reductase is a second enzyme target for the antimalarial action of triclosan” (Scientific Reports, 2018).

What was measured:
[1] = molecular target: P. vivax dihydrofolate reductase (PvDHFR) (Plasmodium vivax, UniProt O02604); test: spectrophotometric DHFR assay at […] nm (NADPH/DHF consumption), purified enzyme; type: biochemical
[2] = molecular target: T1, human dihydrofolate reductase (HsDHFR) (Homo sapiens, UniProt P00374); test: as above; type: biochemical
T1 construct: gene DHFR
T1 sequence (P00374 1-187): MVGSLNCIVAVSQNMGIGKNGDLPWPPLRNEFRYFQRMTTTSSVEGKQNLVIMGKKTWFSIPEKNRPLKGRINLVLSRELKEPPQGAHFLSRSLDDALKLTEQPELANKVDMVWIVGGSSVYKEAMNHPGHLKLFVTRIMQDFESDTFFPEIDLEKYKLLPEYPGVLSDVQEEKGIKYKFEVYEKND

Sequence of P. vivax dihydrofolate reductase (PvDHFR) (O02604 1-240): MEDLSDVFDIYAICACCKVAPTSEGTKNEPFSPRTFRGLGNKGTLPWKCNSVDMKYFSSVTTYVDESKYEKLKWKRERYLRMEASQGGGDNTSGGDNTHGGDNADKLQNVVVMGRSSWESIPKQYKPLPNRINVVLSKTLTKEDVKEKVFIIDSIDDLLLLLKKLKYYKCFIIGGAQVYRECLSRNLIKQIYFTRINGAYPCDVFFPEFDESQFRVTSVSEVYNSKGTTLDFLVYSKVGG

With `Oc1cc(Cl)ccc1Oc1ccc(Cl)cc1Cl` [triclosan] the IC50 [1] was 775 ± 384 nM and the IC50 [2] was 17.2 ± 4.9 µM.
